Assay results taken from patent US6995185B2, “Δ1-pyrrolines used as pesticides” (Bayer Cropscience AG, priority 2000, dated 2006).

Test: log P determination by HPLC on reversed-phase column (C 18), EEC directive 79/831 Annex V.A8
Type: physicochemical
Conditions: pH 2.3 (marked a), 0.1% aqueous phosphoric acid/acetonitrile, 43° C.
Experimental: The log P values given in the tables and Preparation Examples above are determined in accordance with EEC directive 79/831 Annex V.A8 by HPLC (High Performance Liquid Chromatography) using a reversed-phase column (C 18). Temperature: 43° C. In the acidic range, the determination is carried out at pH 2.3 using the mobile phases 0.1% aqueous phosphoric acid and acetonitrile; linear gradient from 10% acetonitrile to 90% acetonitrile (marked^a) in the table). In the neutral range, the determination is carried out at pH 7.5 using the mobile phases 0.01-molar aqueous phosphate buffer solution and acetonitrile; linear gradient from 10% acetonitrile to 90% acetonitrile (marked^b) in the table). Calibration is carried out using unbranched alkan-2-ones (having 3 to 16 carbon atoms) with known log P values (determination of the log P values by the retention times using linear interpolation between two successive alkanones).

In the case of `CC1CCC(OC(=O)[C@H]2CC(c3c(F)cccc3F)=NC2c2ccc(-c3ccc(OC(F)(F)F)cc3)cc2)CC1` (stereo partly shown) [Example 49], the “log P” value is reported as 6.28^a).

Same assay, conditions: reversed-phase HPLC column (C 18), pH 2.3, pH 2.3 (marked a), 0.1% aqueous phosphoric acid/acetonitrile, 43° C.

In order of rising chromatographic logP:
1. CNC(=O)[C@H]1CC(c2c(F)cccc2F)=NC1c1ccc(-c2ccc(OC(F)(F)F)cc2)cc1 (stereo partly shown) [Example 58]  3.26
2. COCCNC(=O)[C@H]1CC(c2c(F)cccc2F)=NC1c1ccc(-c2ccc(OC(F)(F)F)cc2)cc1 (stereo partly shown) [Example 84]  3.33
3. O=C(NCC1CCCO1)[C@H]1CC(c2c(F)cccc2F)=NC1c1ccc(-c2ccc(OC(F)(F)F)cc2)cc1 (stereo partly shown) [Example 83]  3.48
4. CCNC(=O)[C@H]1CC(c2c(F)cccc2F)=NC1c1ccc(-c2ccc(OC(F)(F)F)cc2)cc1 (stereo partly shown) [Example 59]  3.49
5. O=C([C@H]1CC(c2c(F)cccc2F)=NC1c1ccc(-c2ccc(OC(F)(F)F)cc2)cc1)N1CCOCC1 (stereo partly shown) [Example 90]  3.49
6. O=C(OCc1cccnc1)[C@H]1CC(c2c(F)cccc2F)=NC1c1ccc(-c2ccc(OC(F)(F)F)cc2)cc1 (stereo partly shown) [Example 54]  3.59
7. CN(C)C(=O)[C@H]1CC(c2c(F)cccc2F)=NC1c1ccc(-c2ccc(OC(F)(F)F)cc2)cc1 (stereo partly shown) [Example 67]  3.61
8. O=C(OCCCN1CCCC1=O)[C@H]1CC(c2c(F)cccc2F)=NC1c1ccc(-c2ccc(OC(F)(F)F)cc2)cc1 (stereo partly shown) [Example 45]  3.72
9. CC(C)NC(=O)[C@H]1CC(c2c(F)cccc2F)=NC1c1ccc(-c2ccc(OC(F)(F)F)cc2)cc1 (stereo partly shown) [Example 64]  3.74
10. CCCNC(=O)[C@H]1CC(c2c(F)cccc2F)=NC1c1ccc(-c2ccc(OC(F)(F)F)cc2)cc1 (stereo partly shown) [Example 60]  3.78
11. O=C(Nc1nccs1)[C@H]1CC(c2c(F)cccc2F)=NC1c1ccc(-c2ccc(OC(F)(F)F)cc2)cc1 (stereo partly shown) [Example 87]  3.78
12. O=C([C@H]1CC(c2c(F)cccc2F)=NC1c1ccc(-c2ccc(OC(F)(F)F)cc2)cc1)N1CCCC1 (stereo partly shown) [Example 76]  3.82
13. CCN(C)C(=O)[C@H]1CC(c2c(F)cccc2F)=NC1c1ccc(-c2ccc(OC(F)(F)F)cc2)cc1 (stereo partly shown) [Example 68]  3.9
14. O=C(NCc1ccccc1)[C@H]1CC(c2c(F)cccc2F)=NC1c1ccc(-c2ccc(OC(F)(F)F)cc2)cc1 (stereo partly shown) [Example 78]  3.94
15. O=C(NCC(F)(F)F)[C@H]1CC(c2c(F)cccc2F)=NC1c1ccc(-c2ccc(OC(F)(F)F)cc2)cc1 (stereo partly shown) [Example 86]  3.94
16. COC(=O)c1cnc(NC(=O)[C@H]2CC(c3c(F)cccc3F)=NC2c2ccc(-c3ccc(OC(F)(F)F)cc3)cc2)s1 (stereo partly shown) [Example 88]  3.94
17. CCCCNC(=O)[C@H]1CC(c2c(F)cccc2F)=NC1c1ccc(-c2ccc(OC(F)(F)F)cc2)cc1 (stereo partly shown) [Example 61]  4.03
18. O=C(NCc1cccs1)[C@H]1CC(c2c(F)cccc2F)=NC1c1ccc(-c2ccc(OC(F)(F)F)cc2)cc1 (stereo partly shown) [Example 85]  4.03
19. O=C(OCc1ccccn1)[C@H]1CC(c2c(F)cccc2F)=NC1c1ccc(-c2ccc(OC(F)(F)F)cc2)cc1 (stereo partly shown) [Example 53]  4.13
20. CCN(CC)C(=O)[C@H]1CC(c2c(F)cccc2F)=NC1c1ccc(-c2ccc(OC(F)(F)F)cc2)cc1 (stereo partly shown) [Example 72]  4.18
21. COc1ccccc1CNC(=O)[C@H]1CC(c2c(F)cccc2F)=NC1c1ccc(-c2ccc(OC(F)(F)F)cc2)cc1 (stereo partly shown) [Example 94]  4.18
22. CC(C)(C)NC(=O)[C@H]1CC(c2c(F)cccc2F)=NC1c1ccc(-c2ccc(OC(F)(F)F)cc2)cc1 (stereo partly shown) [Example 65]  4.23
23. CCCN(C)C(=O)[C@H]1CC(c2c(F)cccc2F)=NC1c1ccc(-c2ccc(OC(F)(F)F)cc2)cc1 (stereo partly shown) [Example 69]  4.23
24. O=C([C@H]1CC(c2c(F)cccc2F)=NC1c1ccc(-c2ccc(OC(F)(F)F)cc2)cc1)N1CCCCC1 (stereo partly shown) [Example 77]  4.32
25. CCCCCNC(=O)[C@H]1CC(c2c(F)cccc2F)=NC1c1ccc(-c2ccc(OC(F)(F)F)cc2)cc1 (stereo partly shown) [Example 62]  4.37
26. O=C(NC1CCCCC1)[C@H]1CC(c2c(F)cccc2F)=NC1c1ccc(-c2ccc(OC(F)(F)F)cc2)cc1 (stereo partly shown) [Example 66]  4.37
27. Cc1ccc(CNC(=O)[C@H]2CC(c3c(F)cccc3F)=NC2c2ccc(-c3ccc(OC(F)(F)F)cc3)cc2)cc1 (stereo partly shown) [Example 91]  4.37
28. O=C(NCc1ccc(Cl)cc1)[C@H]1CC(c2c(F)cccc2F)=NC1c1ccc(-c2ccc(OC(F)(F)F)cc2)cc1 (stereo partly shown) [Example 81]  4.41
29. O=C(NCc1ccccc1Cl)[C@H]1CC(c2c(F)cccc2F)=NC1c1ccc(-c2ccc(OC(F)(F)F)cc2)cc1 (stereo partly shown) [Example 79]  4.46
30. O=C(NCc1cccc(Cl)c1)[C@H]1CC(c2c(F)cccc2F)=NC1c1ccc(-c2ccc(OC(F)(F)F)cc2)cc1 (stereo partly shown) [Example 80]  4.46
31. O=C(NC1CCC(C(F)(F)F)CC1)[C@H]1CC(c2c(F)cccc2F)=NC1c1ccc(-c2ccc(OC(F)(F)F)cc2)cc1 (stereo partly shown) [Example 89]  4.46
32. CCCCN(C)C(=O)[C@H]1CC(c2c(F)cccc2F)=NC1c1ccc(-c2ccc(OC(F)(F)F)cc2)cc1 (stereo partly shown) [Example 70]  4.56
33. COC(=O)[C@@H](C)COC(=O)[C@H]1CC(c2c(F)cccc2F)=NC1c1ccc(-c2ccc(OC(F)(F)F)cc2)cc1 (stereo partly shown) [Example 39]  4.67
34. COC(=O)[C@H](C)COC(=O)[C@H]1CC(c2c(F)cccc2F)=NC1c1ccc(-c2ccc(OC(F)(F)F)cc2)cc1 (stereo partly shown) [Example 40]  4.67
35. CCCCCCNC(=O)[C@H]1CC(c2c(F)cccc2F)=NC1c1ccc(-c2ccc(OC(F)(F)F)cc2)cc1 (stereo partly shown) [Example 63]  4.67
36. O=C(NCC1CCCCC1)[C@H]1CC(c2c(F)cccc2F)=NC1c1ccc(-c2ccc(OC(F)(F)F)cc2)cc1 (stereo partly shown) [Example 82]  4.67
37. O=C(OCc1ccc(Cl)nc1)[C@H]1CC(c2c(F)cccc2F)=NC1c1ccc(-c2ccc(OC(F)(F)F)cc2)cc1 (stereo partly shown) [Example 47]  4.82
38. O=C(Nc1ccc(OC(F)(F)F)cc1)[C@H]1CC(c2c(F)cccc2F)=NC1c1ccc(-c2ccc(OC(F)(F)F)cc2)cc1 (stereo partly shown) [Example 92]  4.87
39. O=C(NCc1ccc(Cl)cc1Cl)[C@H]1CC(c2c(F)cccc2F)=NC1c1ccc(-c2ccc(OC(F)(F)F)cc2)cc1 (stereo partly shown) [Example 93]  4.87
40. CCCCCN(C)C(=O)[C@H]1CC(c2c(F)cccc2F)=NC1c1ccc(-c2ccc(OC(F)(F)F)cc2)cc1 (stereo partly shown) [Example 71]  4.92
41. CCCN(CCC)C(=O)[C@H]1CC(c2c(F)cccc2F)=NC1c1ccc(-c2ccc(OC(F)(F)F)cc2)cc1 (stereo partly shown) [Example 73]  4.92
42. CC(C)N(C(=O)COC(=O)[C@H]1CC(c2c(F)cccc2F)=NC1c1ccc(-c2ccc(OC(F)(F)F)cc2)cc1)c1ccc(F)cc1 (stereo partly shown) [Example 46]  4.98
43. O=C(OCc1ccsc1)[C@H]1CC(c2c(F)cccc2F)=NC1c1ccc(-c2ccc(OC(F)(F)F)cc2)cc1 (stereo partly shown) [Example 44]  5.14
44. O=C(OCc1cccs1)[C@H]1CC(c2c(F)cccc2F)=NC1c1ccc(-c2ccc(OC(F)(F)F)cc2)cc1 (stereo partly shown) [Example 43]  5.19
45. O=C(OCCOc1ccccc1)[C@H]1CC(c2c(F)cccc2F)=NC1c1ccc(-c2ccc(OC(F)(F)F)cc2)cc1 (stereo partly shown) [Example 42]  5.21
46. O=C(OCc1ccccc1)[C@H]1CC(c2c(F)cccc2F)=NC1c1ccc(-c2ccc(OC(F)(F)F)cc2)cc1 (stereo partly shown) [Example 34]  5.31
47. CC(OC(=O)[C@H]1CC(c2c(F)cccc2F)=NC1c1ccc(-c2ccc(OC(F)(F)F)cc2)cc1)c1ccccc1 (stereo partly shown) [Example 38]  5.54
48. O=C(OCc1cccc(Cl)c1)[C@H]1CC(c2c(F)cccc2F)=NC1c1ccc(-c2ccc(OC(F)(F)F)cc2)cc1 (stereo partly shown) [Example 36]  5.58
49. O=C(OCc1ccccc1Cl)[C@H]1CC(c2c(F)cccc2F)=NC1c1ccc(-c2ccc(OC(F)(F)F)cc2)cc1 (stereo partly shown) [Example 35]  5.65
50. CC(C)[C@@H](C)OC(=O)[C@H]1CC(c2c(F)cccc2F)=NC1c1ccc(-c2ccc(OC(F)(F)F)cc2)cc1 (stereo partly shown) [Example 56]  5.65
51. CCCCN(CCCC)C(=O)[C@H]1CC(c2c(F)cccc2F)=NC1c1ccc(-c2ccc(OC(F)(F)F)cc2)cc1 (stereo partly shown) [Example 74]  5.65
52. O=C(OC1CCc2ccccc21)[C@H]1CC(c2c(F)cccc2F)=NC1c1ccc(-c2ccc(OC(F)(F)F)cc2)cc1 (stereo partly shown) [Example 52]  5.71
53. CC(C)[C@H](C)OC(=O)[C@H]1CC(c2c(F)cccc2F)=NC1c1ccc(-c2ccc(OC(F)(F)F)cc2)cc1 (stereo partly shown) [Example 55]  5.74
54. O=C(OC1CCCc2ccccc21)[C@H]1CC(c2c(F)cccc2F)=NC1c1ccc(-c2ccc(OC(F)(F)F)cc2)cc1 (stereo partly shown) [Example 51]  5.97
55. CC1CCC(OC(=O)[C@H]2CC(c3c(F)cccc3F)=NC2c2ccc(-c3ccc(OC(F)(F)F)cc3)cc2)CC1 (stereo partly shown) [Example 48]  6.22
56. O=C(OCC1CCCCC1)[C@H]1CC(c2c(F)cccc2F)=NC1c1ccc(-c2ccc(OC(F)(F)F)cc2)cc1 (stereo partly shown) [Example 41]  6.28
57. CCCCCN(CCCCC)C(=O)[C@H]1CC(c2c(F)cccc2F)=NC1c1ccc(-c2ccc(OC(F)(F)F)cc2)cc1 (stereo partly shown) [Example 75]  6.43
58. CC(OC(=O)[C@H]1CC(c2c(F)cccc2F)=NC1c1ccc(-c2ccc(OC(F)(F)F)cc2)cc1)C1CCCCC1 (stereo partly shown) [Example 50]  6.54

Same assay, conditions: reversed-phase HPLC column (C 18), pH 7.5, pH 7.5 (marked b), 0.01-molar aqueous phosphate buffer/acetonitrile, 43° C.

In order of falling chromatographic logP:
1. CC(C)[C@@H](C)OC(=O)[C@H]1CC(c2c(F)cccc2F)=NC1c1ccc(-c2ccc(OC(F)(F)F)cc2)cc1 (stereo partly shown) [Example 56]  5.86
2. CC(C)[C@H](C)OC(=O)[C@H]1CC(c2c(F)cccc2F)=NC1c1ccc(-c2ccc(OC(F)(F)F)cc2)cc1 (stereo partly shown) [Example 55]  5.77
